Data as given in US20160244437A1, “SUBSTITUTED PHENYLALANINE DERIVATIVES” (BAYER PHARMA AKTIENGESELLSCHAFT, priority 2013, published 2016).
pIC50: −log10 of the molar value. Counter-ions that a name gives are not always drawn.

Assays:
human and animal plasma = assay: Determination of anticoagulatory activity: activated partial thromboplastin time (aPTT) in plasma; settings: concentration of test substance which brings about a 1.5-fold extension of the aPTT; plasma in vitro, C.K. Prest kit
Procedure: The anticoagulatory activity of the test substances is determined in vitro in human and animal plasma (for example mouse, rat, rabbit, pig and dog plasma). To this end, blood is drawn off in a mixing ratio of sodium citrate/blood of 1:9 using a 0.11 molar sodium citrate solution as receiver. Immediately after the blood has been drawn off, it is mixed thoroughly and centrifuged at about 4000 g for 15 minutes. The supernatant is pipetted off.
The activated partial thromboplastin time (aPTT) is determined in the presence of varying concentrations of test substance or the corresponding solvent using a commercial test kit (C.K. Prest from Diagnostica Stago). The test compounds are incubated with the plasma and the PTT reagent (cephalin, kaolin) at 37° C. for 3 minutes. Coagulation is then started by addition of a 25 mM aqueous calcium chloride solution, and the time when coagulation occurs is determined. The concentration of test substance which brings about a 1.5-fold extension of the aPTT is determined.

human factor XIa = target: T1, human factor XIa (Homo sapiens, UniProt P03951); assay: Measurement of FXIa inhibition (fluorogenic peptide substrate Boc-Glu(OBzl)-Ala-Arg-AMC); assay type: biochemical; settings: factor XIa from Kordia 0.45 nM, 15 min pre-incubation, 30 min at 22° C., fluorescence
T1 construct: purchased Kordia
T1 sequence (P03951 388-625 limits assumed): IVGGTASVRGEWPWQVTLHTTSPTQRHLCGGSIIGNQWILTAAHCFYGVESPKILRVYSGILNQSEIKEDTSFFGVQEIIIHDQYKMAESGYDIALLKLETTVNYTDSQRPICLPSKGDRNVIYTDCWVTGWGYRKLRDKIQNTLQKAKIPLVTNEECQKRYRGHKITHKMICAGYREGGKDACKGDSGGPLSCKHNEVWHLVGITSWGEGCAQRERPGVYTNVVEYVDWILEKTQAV
T1 sequence (P03951 19-387 partner limits assumed): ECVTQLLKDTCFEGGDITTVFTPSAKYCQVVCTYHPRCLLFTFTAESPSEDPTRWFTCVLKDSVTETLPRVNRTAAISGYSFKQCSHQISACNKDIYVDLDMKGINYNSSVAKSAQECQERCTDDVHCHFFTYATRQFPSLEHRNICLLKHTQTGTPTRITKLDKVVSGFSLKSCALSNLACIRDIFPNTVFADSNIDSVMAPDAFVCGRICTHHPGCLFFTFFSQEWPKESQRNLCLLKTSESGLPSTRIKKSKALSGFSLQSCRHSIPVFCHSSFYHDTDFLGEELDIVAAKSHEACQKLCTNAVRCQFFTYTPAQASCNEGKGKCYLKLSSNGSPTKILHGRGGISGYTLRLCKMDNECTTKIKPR

SMILES | aPTT (human and animal plasma) [µmol/L] | pIC50 (human factor XIa)
NC[C@H]1CC[C@H](C(=O)N[C@@H](Cc2cccc(-c3cncc(S(=O)(=O)NC4CCNCC4)c3)c2)C(=O)Nc2ccc(-c3nnc(Cl)[nH]3)cc2)CC1 [Example 106, N-alpha-{[trans-4-(Aminomethyl)cyclohexyl]carbonyl}-N-[4-(3-chloro-4H-1,2,4-triazol-5-yl)phenyl]-3-[5-(piperidin-4-ylsulphamoyl)pyridin-3-yl]-L-phenylalaninamide hydrochloride] | 0.13 | 8.24
Cc1ccc(S(=O)(=O)N2CCOCC2)cc1-c1cccc(C[C@H](NC(=O)[C@H]2CC[C@H](CN)CC2)C(=O)Nc2ccc3[nH]c(=O)[nH]c3c2)c1 [Example 10, trans-4-(Aminomethyl)-N-{(2S)-3-[2′-methyl-5′-(morpholin-4-ylsulphonyl)biphenyl-3-yl]-1-oxo-1-[(2-oxo-2,3-dihydro-1H-benzimidazol-5-yl)amino]propan-2-yl}cyclohexanecarboxamide hydrochloride] | 0.23 | 7.89
Cc1cc(S(=O)(=O)N(C)C)ccc1-c1cccc(C[C@H](NC(=O)[C@H]2CC[C@H](CN)CC2)C(=O)Nc2ccc(-c3nnn[nH]3)cc2)c1 [Example 7, trans-4-(Aminomethyl)-N-[(2S)-3-[4′-(dimethylsulphamoyl)-2′-methylbiphenyl-3-yl]-1-oxo-1-{[4-(1H-tetrazol-5-yl)phenyl]amino}propan-2-yl]cyclohexanecarboxamide hydrochloride] | 0.33 | 8.77
NC[C@H]1CC[C@H](C(=O)N[C@@H](Cc2cccc(-c3cccc(S(N)(=O)=O)c3)c2)C(=O)Nc2ccc(-c3nnn[nH]3)cc2)CC1 [Example 5, trans-4-(Aminomethyl)-N-[(2S)-1-oxo-3-(3′-sulphamoylbiphenyl-3-yl)-1-{[4-(1H-tetrazol-5-yl)phenyl]amino}propan-2-yl]cyclohexanecarboxamide hydrochloride] | 0.23 | 8.47
Cc1ccc(C(=O)NC2CCNCC2)cc1-c1cccc(C[C@H](NC(=O)[C@H]2CC[C@H](CN)CC2)C(=O)Nc2ccc(-c3nnn[nH]3)cc2)c1 [Example 14, 3′-[(2S)-2-({[trans-4-(Aminomethyl)cyclohexyl]carbonyl}amino)-3-oxo-3-{[4-(1H-tetrazol-5-yl)phenyl]amino}propyl]-6-methyl-N-(piperidin-4-yl)biphenyl-3-carboxamide hydrochloride] | 0.15 | 8.32
NC[C@H]1CC[C@H](C(=O)N[C@@H](Cc2cccc(-c3cnc(N)nc3)c2)C(=O)Nc2ccc(-c3nnn[nH]3)cc2)CC1 [Example 79, N-alpha-{[trans-4-(Aminomethyl)cyclohexyl]carbonyl}-3-(2-aminopyrimidin-5-yl)-N-[4-(1H-tetrazol-5-yl)phenyl]-L-phenylalaninamide hydrochloride] | 0.14 | 8.64
CN(C)CCCOc1ccc(-c2cccc(C[C@H](NC(=O)[C@H]3CC[C@H](CN)CC3)C(=O)Nc3ccc(-c4nc(C(F)(F)C(F)(F)C(=O)O)n[nH]4)cc3)c2)cn1 [Example 109, hydrochloride] | 0.16 | 8.22
CN(C)CCCOc1ccc(-c2cccc(C[C@H](NC(=O)[C@H]3CC[C@H](CN)CC3)C(=O)Nc3ccc(-c4nc(C(F)(F)C(F)(F)C(F)(F)C(=O)O)n[nH]4)cc3)c2)cn1 [Example 108, 4-(5-{4-[(N-{[trans-4-(Aminomethyl)cyclohexyl]carbonyl}-3-{6-[3-(dimethylamino)propoxy]pyridin-3-yl}-L-phenylalanyl)amino]phenyl}-1H-1,2,4-triazol-3-yl)-2,2,3,3,4,4-hexafluorobutanoic acid hydrochloride] | 0.25 | 8.26
CN(C)CCCOc1ccc(-c2cccc(C[C@H](NC(=O)[C@H]3CC[C@H](CN)CC3)C(=O)Nc3ccc4[nH]c(=O)[nH]c4c3)c2)cn1 [Example 100, N-alpha-{[trans-4-(Aminomethyl)cyclohexyl]carbonyl}-3-{6-[3-(dimethylamino)propoxy]pyridin-3-yl}-N-(2-oxo-2,3-dihydro-1H-benzimidazol-5-yl)-L-phenylalaninamide hydrochloride] | 0.34 | 7.23
NC[C@H]1CC[C@H](C(=O)N[C@@H](Cc2cccc(-c3cccnc3C(F)(F)F)c2)C(=O)Nc2ccc(-c3nnn[nH]3)cc2)CC1 [Example 81, N-alpha-{[trans-4-(Aminomethyl)cyclohexyl]carbonyl}-N-[4-(1H-tetrazol-5-yl)phenyl]-3-[2-(trifluoromethyl)pyridin-3-yl]-L-phenylalaninamide hydrochloride] | 0.3 | 8.60
NC[C@H]1CC[C@H](C(=O)N[C@@H](Cc2cccc(-c3cccc(C(=O)NCCN4CCCC4)c3)c2)C(=O)Nc2ccc(-c3nnn[nH]3)cc2)CC1 [Example 61, 3′-[(2S)-2-({[trans-4-(Aminomethyl)cyclohexyl]carbonyl}amino)-3-oxo-3-{[4-(1H-tetrazol-5-yl)phenyl]amino}propyl]-N-[2-(pyrrolidin-1-yl)ethyl]biphenyl-3-carboxamide hydrochloride] | 0.37 | 7.92
CC(=O)Nc1ccc(Cl)c(-c2cccc(C[C@H](NC(=O)[C@H]3CC[C@H](CN)CC3)C(=O)Nc3ccc(-c4nnn[nH]4)cc3)c2)c1 [Example 86, trans-N-[(2S)-3-[5′-(Acetylamino)-2′-chlorobiphenyl-3-yl]-1-oxo-1-{[4-(1H-tetrazol-5-yl)phenyl]amino}propan-2-yl]-4-(aminomethyl)cyclohexanecarboxamide hydrochloride] | 0.24 | 8.60
NC[C@H]1CC[C@H](C(=O)N[C@@H](Cc2cccc(-c3cnc(N4CCOCC4)nc3)c2)C(=O)Nc2ccc(-c3n[nH]c(C(F)(F)C(F)(F)C(=O)O)n3)cc2)CC1 [Example 96, 3-(3-{4-[(N-{[trans-4-(Aminomethyl)cyclohexyl]carbonyl}-3-[2-(morpholin-4-yl)pyrimidin-5-yl]-L-phenylalanyl)amino]phenyl}-1H-1,2,4-triazol-5-yl)-2,2,3,3-tetrafluoropropanoic acid hydrochloride] | 0.19 | 8.48
Cc1ccc(S(=O)(=O)N2CCOCC2)cc1-c1cccc(C[C@H](NC(=O)[C@H]2CC[C@H](CN)CC2)C(=O)Nc2ccc(-c3noc(=O)[nH]3)cc2)c1 [Example 52, trans-4-(Aminomethyl)-N-[(2S)-3-[2′-methyl-5′-(morpholin-4-ylsulphonyl)biphenyl-3-yl]-1-oxo-1-{[4-(5-oxo-4,5-dihydro-1,2,4-oxadiazol-3-yl)phenyl]amino}propan-2-yl]cyclohexanecarboxamide hydrochloride] | 0.06 | 8.74
CC(=O)Nc1ncc(-c2cccc(C[C@H](NC(=O)[C@H]3CC[C@H](CN)CC3)C(=O)Nc3ccc(-c4nnn[nH]4)cc3)c2)c(C)n1 [Example 94, 3-[2-(Acetylamino)-4-methylpyrimidin-5-yl]-N-alpha-{[trans-4-(aminomethyl)cyclohexyl]-carbonyl}-N-[4-(1H-tetrazol-5-yl)phenyl]-L-phenylalaninamide hydrochloride] | 0.23 | 8.27
